Source: patent US20110251135A1, “INHIBITORS OF PERITONEAL SEEDING OF CANCER CELLS” (University of Utah Research Foundation, priority 2008, published 2011)

What was measured:
Type in all cases: cell-based, human
DLD-1 cells = experiment: Soft agar colony formation assay; details: 10 μM for 6 days
Description: (§1) DLD-1, HCT-116, and HT-29 cells were cultured for 6 days in soft agar in the presence of DMSO (control), 10 μM BAY 11-7082, or 10 μM BAY 11-7085. The data points represent the means of colony counts per field (20×) performed in 5 different regions of the culture dishes. The data shown represent a typical result of two separate experiments. FIG. 2B and FIG. 2C are graphs that show athymic mice received subcutaneous injections of HT-29 (FIG. B) or HCT-116 (FIG. C) cells, followed by […] of BAY 11-7085 (dark bars) or DMSO (white bars) intraperitoneally twice weekly. The bars represent the 25-75% ranges of the tumor volumes and the horizontal lines in the bars are the medians. Using the Kruskal-Wallace statistical test to compare the median tumor volumes between BAY 11-7085 and DMSO yielded a p-value of 0.005 for HT-29 cells but >0.05 for HCT-116 cells.
(§2) Anchorage-independent cell growth is a hallmark of cancer cells and is a good correlation to tumorigencity in vivo. Therefore, the effects of BAY 11-7082 and BAY 11-7085 were examined on colon cancer cell growth using the soft agar colony formation assay.

HCT-116 cells = experiment: Soft agar colony formation assay; details: 10 μM for 6 days
Description: as §1, §2

HT-29 cells = experiment: Soft agar colony formation assay; details: 10 μM for 6 days
Description: as §1, §2

[1] = system: transiently suspended DLD-1 cells; experiment: Apoptosis of transiently suspended cells during readhesion (annexin V assay); details: DLD-1 transiently suspended, treated and allowed to readhere; 8 hours
Description: (§3) The transiently suspended cells were lysed and allowed to bind to DNA oligonucleotides, containing the NF-κB consensus binding site, that were immobilized to 96-well plates. NF-κB protein bound to the oligonucleotides was detected by an antibody to the p65 subunit that only recognized p65 that is bound to DNA. The positive control was HeLa cells that were stimulated with TNFα. A control was performed using excess free NF-κB oligonucleotides (Competitor). […] NF-κB binding activity was determined by the TransAM assay as in FIG. 5A. […] The data shown represent typical results of three separate experiments. […] An immunoblot for COX-2 was performed.
(§4) Single cell suspensions were plated at 100,000 cells per well in 24-well plates in media containing DMSO, BAY 11-7082, BAY 11-7085, or MG-132 for 8-24 hours in an incubator. Alternatively, DMSO, BAY 11-7082, BAY 11-7085, or MG-132 were added to cells that were confluent and adherent for several days. The nonadherent cells were aspirated off with the media and spun for 3 minutes at 2,000 rpm in 15 mL polypropylene tubes. […] 400 μL of binding buffer was added to each tube and the cells were analyzed by flow cytometry immediately. The percent of apoptosis was determined as the percent of annexin V-positive, propidium iodide-negative cells of the total cells counted. […]

[2] = system: transiently suspended HCT-116 cells; experiment: as above; details: HCT-116 transiently suspended, treated and allowed to readhere; 8 hours
Description: as §3, §4

DLD-1 and HT-29 cells = experiment: Readhesion survival of cells transduced with IκB super-repressor adenovirus (crystal violet)
Description: The percentage of apoptotic cells was determined using the annexin V assay. The data points represent the averages of three experiments; bars, +−.SE. E. DLD-1 and F. HT-29 cells were transduced with an adenovirus containing the IκB super-repressor construct. After 3 days, the cells were transiently suspended and allowed to readhere in the presence of subapoptotic concentrations of BAY 11-7085 or DMSO (vehicle) for 8 hours. The data are expressed as fractions of cells surviving compared with the controls (no adenovirus) and were quantitatively determined by staining the remaining adherent cells with crystal violet.
DLD-1 and HT-29 cells that were approximately 60-70% confluent were transduced with Ad-IκB super-repressor by adding 1-50 μL of purified virus to the cells. […] In a parallel experiment, the transduced cells were resuspended and allowed to readhere in BAY 11-7085 for 8 h. The percentage of surviving (nonapoptotic) cells was determined using crystal violet staining.
The specific involvement of NF-κB in the apoptotic mechanism of BAY 11-7085 was examined specifically. […] The transduced DLD-1 and HT-29 cells were then transiently suspended and allowed to readhere at concentrations of BAY 11-7085 below the in vitro apoptotic threshold (>20 μM) for these cell lines. […] Therefore, inhibition of NF-κB is important to the apoptotic effect of BAY 11-7085 during colon cancer cell readhesion.

CC(C)(C)c1ccc(S(=O)(=O)/C=C/C#N)cc1 [BAY 11-7085, (2E)-3-[4-(tertiarybutylphenyl)sulfonyl]-2-propenenitrile] was tested, and the anchorage-independent proliferation (DLD-1 cells) was “significantly inhibited”, the anchorage-independent proliferation (HCT-116 cells) was “but not HCT-116” and the anchorage-independent proliferation (HT-29 cells) was “significantly inhibited”. The “BAY 11-7085-induced apoptosis during readhesion” value [1] was “showed the same propensity for BAY 11-7085-induced apoptosis”, the “BAY 11-7085-induced apoptosis during readhesion” value [2] was “HCT-116 cells did not” and the “in vitro apoptotic threshold” value (DLD-1 and HT-29 cells; DLD-1 and HT-29 cells during readhesion) was greater than 20 µM. For the same compound, the “apoptotic threshold of BAY 11-7085 compared with the controls” value (DLD-1 and HT-29 cells; DLD-1 and HT-29 expressing IκB super-repressor, readhesion 8 hours) was “significantly lowered the apoptotic threshold”.
